Test results: patent US4663321A, “Triazolobenzodiazepines and pharmaceutical use” (Merck & Co., Inc., priority 1985, dated 1987)
Read-outs that look alike come from different tables or passages of the source. Square brackets hold non-standard residues; d marks the D form. Peptide text beside a SMILES is read from it. * marks the point of attachment. sY = N[C@@H](Cc1ccc(OS(=O)(=O)O)cc1)C(=O)O; Cbz = O=C(OCc1ccccc1)*; Boc = CC(C)(C)OC(=O)*

Tests used:
CCK receptor [1] = settings: prior art CCK antagonists; cited from earlier work
CCK receptor [2] = target: T1, CCK receptor (Rattus norvegicus, UniProt P30551); assay: CCK receptor binding (pancreas), inhibition of 125I-CCK-33 binding; set-up: species or system rat (Male Sprague-Dawley); settings: for effect on the 125I-CCK receptor binding assay: protease inhibitor additives of the assay buffer
T1 construct: The whole pancreas was dissected free of fat tissue and was homogenized; from tissue; host or cells: rat (Sprague-Dawley) whole pancreas membranes
T1 sequence (P30551 1-444): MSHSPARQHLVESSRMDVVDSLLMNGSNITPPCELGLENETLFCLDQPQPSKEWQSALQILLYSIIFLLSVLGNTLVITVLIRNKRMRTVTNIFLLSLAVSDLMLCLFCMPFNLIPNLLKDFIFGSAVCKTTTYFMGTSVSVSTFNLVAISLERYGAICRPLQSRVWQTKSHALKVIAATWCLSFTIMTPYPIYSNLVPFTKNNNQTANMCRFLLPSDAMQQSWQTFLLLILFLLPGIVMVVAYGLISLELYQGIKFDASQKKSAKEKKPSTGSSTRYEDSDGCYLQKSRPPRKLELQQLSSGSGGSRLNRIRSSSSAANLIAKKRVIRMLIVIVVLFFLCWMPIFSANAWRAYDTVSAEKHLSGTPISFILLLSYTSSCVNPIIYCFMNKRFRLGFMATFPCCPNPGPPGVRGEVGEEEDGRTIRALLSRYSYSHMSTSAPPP
Method: 1. CCK receptor binding (pancreas)
CCK-33 was radiolabeled with ^125 I-Bolton Hunter reagent (2000 Ci/mmole) as described by Sankara et al. (J. Biol. Chem. 254: 9349-9351, 1979). Receptor binding was performed according to Innis and Snyder (Proc. Natl. Acad. Sci. 77: 6917-6921, 1980) with the minor modification of adding the additional protease inhibitors, phenylmethane sulfonyl fluoride and o-phenanthroline. The latter two compounds have no effect on the ^125 I-CCK receptor binding assay.
Male Sprague-Dawley rats (200-350 g) were sacrificed by decapitation. The whole pancreas was dissected free of fat tissue and was homogenized in 20 volumes of ice-cold 50 mM. Tris HCl (pH 7.7 at 25° C.) with a Brinkmann Polytron PT 10. The homogenates were centrifuged at 48,000 g for 10 min. Pellets were resuspended in Tris Buffer, centrifuged as above and resuspended in 200 volumes of binding assay buffer (50 mM Tris HCl, pH 7.7 at 25° C., 5 mM dithiothrietol, 0.1 mM bacitracin, 1.2 mM phenylmethane sulfonyl fluoride and 0.5 mM o-phenanthroline). […] All assays were run in duplicate or triplicate. The reaction mixtures were incubated at 37° C. for 30 minutes and centrifuged in a Beckman Microfuge (4 minutes) immediately after adding 1 ml of ice-cold incubation buffer. The supernatant was aspirated and discarded, pellets were counted with a Beckman gamma 5000. For Scatchard analysis (Ann. N.Y. Acad. Sci. 51: 660, 1949), ^125 I-CCK-33 was progressively diluted with increasing concentrations of CCK-33.

CCK receptor [3] = target: T2, CCK receptor (Cavia porcellus, UniProt H0VZC5); assay: CCK receptor binding (brain), inhibition of 125I-CCK-33 binding; set-up: species or system guinea pig (Male Hartley); settings: 125I-CCK-33, guinea pig cerebral cortex, 25° C., 2 hours
T2 construct: Cerebral cortex was dissected and used as a receptor source; from tissue; host or cells: guinea pig (Hartley) cerebral cortex membranes
T2 sequence (H0VZC5 entry or part of it): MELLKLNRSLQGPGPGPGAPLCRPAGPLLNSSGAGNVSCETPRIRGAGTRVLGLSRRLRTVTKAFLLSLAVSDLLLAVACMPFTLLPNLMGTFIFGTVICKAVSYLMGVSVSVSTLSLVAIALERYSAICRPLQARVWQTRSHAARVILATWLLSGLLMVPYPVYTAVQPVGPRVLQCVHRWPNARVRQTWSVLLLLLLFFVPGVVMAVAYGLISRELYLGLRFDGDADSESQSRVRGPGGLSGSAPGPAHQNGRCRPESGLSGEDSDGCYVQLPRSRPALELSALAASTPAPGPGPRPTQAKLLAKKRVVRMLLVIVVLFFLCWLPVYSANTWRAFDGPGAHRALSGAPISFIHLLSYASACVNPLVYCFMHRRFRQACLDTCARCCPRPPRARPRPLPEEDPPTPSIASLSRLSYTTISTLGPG
Method: 2. CCK Receptor Binding (Brain)
CCK-33 was radiolabeled and the binding was performed according to the description for the pancreas method with modification according to Saito et al. (J. Neurochem. 37, 483-490, 1981).
Male Hartley guinea pigs (300-500 g) were sacrificed by decapitation and the brains were removed and placed in ice-cold 50 mM. Tris HCl plus 7.58 g/l Trizma-7.4 (pH 7.4 at 25° C.). Cerebral cortex was dissected and used as a receptor source. Each gram of fresh guinea pig brain tissue was homogenized in 10 ml of Tris Trizma buffer with a Brinkman polytron PT-10. The homogenates were centrifuged at 42,000 g for 15 min. […] All assays were run in duplicate or triplicate. The reaction mixtures were incubated at 25° C. for 2 hours and centrifuged in a Beckman Microfuge (4 minutes) immediately after adding 1 ml of ice-cold incubation buffer. The supernatant was aspirated and discarded, pellets were counted with a Beckman gamma 5000.

gastrin receptor = settings: cited from earlier work
[4] = 125I-CCK-33, rat pancreas membranes, 37° C., 30 minutes, read-out: IC50 125I-CCK Pancreas
[5] = read-out: IC50 125I-CCK Pancreas

SMILES | IC50 (CCK receptor [2]; [4]) | IC50 (CCK receptor [3]) | other results
CSCC[C@H](NC(=O)OC(C)(C)C)C(=O)N[C@@H](CC(=O)O)C(=O)N[C@@H](Cc1ccccc1)C(N)=O [Boc-Met-Asp-Phe-NH2] (Boc-Met-Asp-Phe-NH2) |  |  | CCK antagonist activity (CCK receptor [1]): can function as CCK antagonists
CSCC[C@H](NC(=O)[C@H](Cc1ccc(OS(=O)(=O)O)cc1)NC(=O)OCc1ccccc1)C(=O)NCC(=O)N[C@@H](Cc1c[nH]c2ccccc12)C(=O)N[C@@H](CCSC)C(=O)N[C@@H](CC(=O)O)C(N)=O [Cbz-Tyr(SO3 H)-Met-Gly-Trp-Met-Asp-NH2] (Cbz-[sY]MGWMD-NH2) |  |  | CCK antagonist activity (CCK receptor [1]): can function as CCK antagonists
Fc1ccccc1C1=N[C@H](Cc2c[nH]c3ccccc23)c2nncn2-c2ccccc21 [Compound 1, 6-(2-Fluorophenyl)-4(R)-4-(3'-indolyl)methyl-4H-s-triazolo[4,3-a]-1,4-benzodiazepine] | 0.2 µM |  | 
Cc1nnc2n1-c1ccccc1C(c1ccccc1F)=N[C@@H]2Cc1c[nH]c2ccccc12 [Compound 2, 6-(2-Fluorophenyl)-4-(R)-4-(3'-indolyl)methyl-1-methyl-4H-s-triazolo[4,3-a]-1,4-benzodiazepine] | 0.3 µM | 38.6 µM | 
Fc1ccccc1C1=N[C@H](Cc2c[nH]c3ccccc23)c2nnc(-c3ccccc3)n2-c2ccccc21 [Compound 3, 6-(2-Fluorophenyl)-4(R)-4-(3'-indolyl)methyl-1-phenyl-4H-s-triazolo[4,3-a]-1,4-benzodiazepine] |  |  | IC50 (CCK receptor [2]; [5]): 22 µM
CN(C)Cc1nnc2n1-c1ccccc1C(c1ccccc1F)=N[C@@H]2Cc1c[nH]c2ccccc12 [Compound 4, 6-(2-Fluorophenyl)-4(R)-4-(3'-indolyl)methyl-1-dimethylaminomethyl-4H-s-triazolo[4,3-a]-1,4-benzodiazapine] |  |  | IC50 (CCK receptor [2]; [5]): 14 µM
O=c1[nH]nc2n1-c1ccccc1C(c1ccccc1F)=N[C@@H]2Cc1c[nH]c2ccccc12 [Compound 5, 2,4-Dihydro-3(R)-(3'-indolyl)methyl-6-(2-fluorophenyl)-1H-S-triazolo-[4,3-a]-1,4-benzodiazepin-1-one solvate] |  | 63 µM | IC50 (CCK receptor [2]): 3.1 µM
Fc1ccccc1C1=N[C@H](Cc2c[nH]c3ccccc23)c2nnc(C(Cl)(Cl)Cl)n2-c2ccccc21 [Compound 6, 1-Trichloromethyl-4(R)-(3'-indolyl)methyl-6-(2-fluorophenyl)-4H-S-triazolo[4,3-a]-1,4-benzodiazepine solvate] | 25 µM | > 100 µM | 
O=C(NC1N=C(c2ccccc2F)c2ccccc2-n2cnnc21)OCc1ccccc1 (stereo not drawn) [Compound 7, 6-(2-Fluorophenyl)-4-benzyloxycarbonylamino-4H-s-triazolo[4,3-a]-1,4-benzodiazepine] |  | 8 µM | IC50 (CCK receptor [2]; [5]): 0.22 µM
O=C(NC1N=C(c2ccccc2F)c2ccccc2-n2cnnc21)c1ccc(Cl)cc1 (stereo not drawn) [Compound 8, 6-(2-Fluorophenyl)-4-(4-chlorophenyl)carbonylamino-4H-s-triazolo[4,3-a]-1,4-benzodiazepine] | 0.0044 µM | 9.3 µM | 
O=C(NC1N=C(c2ccccc2F)c2ccccc2-n2cnnc21)c1cc2ccccc2[nH]1 (stereo not drawn) [Compound 9, 6-(2-Fluorophenyl)-4-(indol-2-yl)carbonylamino-4H-s-triazolo[4,3-a]-1,4-benzodiazepine] | 0.0009 µM | 0.053 µM | 
Cc1nnc2n1-c1ccccc1C(c1ccccc1F)=NC2NC(=O)c1cc2ccccc2[nH]1 (stereo not drawn) [Compound 10, 6-(2-Fluorophenyl)-4-(indol-2-yl)carbonylamino-1-methyl-4H-s-triazolo[4,3-a]-1,4-benzodiazepine] | 0.0004 µM | 0.066 µM | 
CSCC[C@H](N)C(=O)N[C@@H](CC(=O)O)C(=O)N[C@@H](Cc1ccccc1)C(N)=O [Met-Asp-Phe-NH2] (H-Met-Asp-Phe-NH2) |  |  | CCK antagonist activity (CCK receptor [1]): can function as CCK antagonists
CCCC(=O)Nc1nc2c(ncn2[C@@H]2O[C@@H]3COP(=O)(O)O[C@H]3[C@H]2OC(=O)CCC)c(=O)[nH]1 [dibutyryl cyclic GMP] |  |  | CCK antagonist activity (CCK receptor [1]): most potent
c1cnc2c(c1)ccc1cccnc12 [o-phenanthroline, reference compound] |  |  | effect on the 125I-CCK receptor binding assay (CCK receptor [2]): no effect
O=S(=O)(F)Cc1ccccc1 [phenylmethane sulfonyl fluoride, reference compound] |  |  | effect on the 125I-CCK receptor binding assay (CCK receptor [2]): no effect
CCCN(CCC)C(=O)C(CCC(=O)O)NC(=O)c1ccccc1 (stereo not drawn) [proglumide] |  |  | in vitro gastrin antagonism (gastrin receptor): Very weak in vitro antagonists
